Experimental data as given in patent US4443436A, “C-20-Modified macrolide derivatives of the macrolide antibiotics tylosin, desmycosin, macrocin, and lactenocin” (Eli Lilly and Company, priority 1982, dated 1984).
Values after ≈ are worked out from the molar mass of the structure shown. Where two headings read alike, the source gives them in different places.

Tests used:
[1] = system: Staphylococcus aureus X1.1; assay: MIC, standard agar-dilution assay, Staphylococcus aureus X1.1; format: cell-based
[2] = system: Staphylococcus aureus V41; assay: MIC, standard agar-dilution assay, Staphylococcus aureus V41; format: cell-based
[3] = system: Staphylococcus aureus X400; assay: MIC, standard agar-dilution assay, Staphylococcus aureus X400; format: cell-based
[4] = system: Staphylococcus aureus S13E; assay: MIC, standard agar-dilution assay, Staphylococcus aureus S13E; format: cell-based
[5] = system: Staphylococcus epidermidis EPI1; assay: MIC, standard agar-dilution assay, Staphylococcus epidermidis EPI1; format: cell-based
[6] = system: Staphylococcus epidermidis EPI2; assay: MIC, standard agar-dilution assay, Staphylococcus epidermidis EPI2; format: cell-based; conditions: Staphylococcus epidermidis EPI2, agar dilution
[7] = system: Streptococcus pyogenes C203; assay: MIC, standard agar-dilution assay, Streptococcus pyogenes C203; format: cell-based
[8] = system: Streptococcus pneumoniae Park I; assay: microbe, parasite or virus in culture; format: cell-based
[9] = system: Streptococcus Group D X66; assay: MIC, standard agar-dilution assay, Streptococcus Group D X66; format: cell-based; conditions: Streptococcus Group D X66, agar dilution
Streptococcus Group 9960 = assay: MIC, standard agar-dilution assay, Streptococcus Group 9960; format: cell-based; conditions: Streptococcus Group 9960, agar dilution
[10] = system: Haemophilus influenzae Holt; assay: MIC, standard agar-dilution assay, Haemophilus influenzae Holt; format: cell-based; conditions: Haemophilus influenzae Holt, ampicillin-sensitive strain
[11] = system: Haemophilus influenzae R252; assay: MIC, standard agar-dilution assay, Haemophilus influenzae R252; format: cell-based; conditions: Haemophilus influenzae R252, ampicillin-resistant strain
Staphylococcus aureus = assay: MIC, broth-dilution microtiter test, Staphylococcus aureus; format: cell-based; conditions: broth-dilution microtiter
Source text: (§1) The MIC's in Table X were obtained using conventional broth-dilution microtiter tests.

Streptococcus bovis 80 = assay: MIC, broth-dilution microtiter test, Streptococcus bovis 80; format: cell-based; conditions: Streptococcus bovis 80, broth-dilution microtiter
Source text: as §1

[12] = system: Pasteurella multocida 17E; assay: MIC, broth-dilution microtiter test, Pasteurella multocida 17E; format: cell-based; conditions: Pasteurella multocida 17E, bovine isolate, broth-dilution microtiter
Source text: as §1

[13] = system: Pasteurella multocida 60A; assay: MIC, broth-dilution microtiter test, Pasteurella multocida 60A; format: cell-based; conditions: Pasteurella multocida 60A, avian isolate, broth-dilution microtiter
Source text: as §1

[14] = system: Pasteurella hemolytica 22C; assay: MIC, broth-dilution microtiter test, Pasteurella hemolytica 22C; format: cell-based; conditions: Pasteurella hemolytica 22C, broth-dilution microtiter
Source text: as §1

Mycoplasma gallisepticum = assay: MIC, broth-dilution microtiter test, Mycoplasma gallisepticum; format: cell-based
Source text: as §1

Mycoplasma hyorhinis = assay: MIC, broth-dilution microtiter test, Mycoplasma hyorhinis; format: cell-based
Source text: as §1

[15] = system: Streptococcus pyogenes C203; assay: In vivo protection of mice experimentally infected with S. pyogenes C203; conditions: Streptococcus pyogenes, mice, doses given 1 and 4 hours post-infection
Method: The C-20 modified derivatives of this invention have shown in vivo antimicrobial activity against experimentally-induced infections in laboratory animals. When two doses of test compound were administered to mice experimentally infected with S. pyogenes C203, the activity observed was measured as an ED50 value [effective dose in mg/kg to protect 50% of the test animals: see Warren Wick, et al., J. Bacteriol. 81, 233-235 (1961)].

[16] = Staphylococcus epidermidis, EPI1
[17] = Staphylococcus aureus X1.1, agar dilution
[18] = Staphylococcus aureus V41, penicillin-resistant strain, agar dilution
[19] = Staphylococcus aureus X400, methicillin-resistant strain, agar dilution
[20] = Staphylococcus aureus S13E, agar dilution
[21] = Staphylococcus epidermidis EPI1, agar dilution
[22] = Streptococcus pyogenes C203, agar dilution

| Compound | MIC ([1]; Staphylococcus aureus, X1.1) [mg/L] | MIC ([2]; Staphylococcus aureus, V41) [mg/L] | MIC ([4]; Staphylococcus aureus, S13E) [mg/L] | MIC [5, 16] [mg/L] | MIC ([9]; read-out: MIC) [mg/L] | MIC (Streptococcus Group 9960; GROUP9960, read-out: MIC) [mg/L] | MIC [1, 17] [mg/L] | MIC [2, 18] [mg/L] | MIC [3, 19] [mg/L] | MIC [4, 20] [mg/L] | MIC [5, 21] [mg/L] | MIC [6] [mg/L] | MIC [9] | MIC (Streptococcus Group 9960) | MIC ([10]; agar dilution) | MIC ([11]; agar dilution) | MIC [7, 22] [mg/L] | further results |
| --- | --- | --- | --- | --- | --- | --- | --- | --- | --- | --- | --- | --- | --- | --- | --- | --- | --- | --- |
| CCC1OC(=O)CC(O)C(C)C(OC2OC(C)C(O)C(N(C)C)C2O)C(CCOCCc2ccccc2)CC(C)C(=O)C=CC(C)=CC1COC1OC(C)C(O)C(OC)C1OC (stereo not drawn) [Compound 31, 20-DH-20-O-(Phenethyl)desmycosin] | 0.25 (≈ 0.285 µM) | 0.25 (≈ 0.285 µM) | 0.25 (≈ 0.285 µM) | 0.25 (≈ 0.285 µM) | 8 (≈ 9.11 µM) | 16 (≈ 18.2 µM) |  |  |  |  |  |  |  |  |  |  |  | MIC ([3]; Staphylococcus aureus, X400): 0.5 mg/L (≈ 0.569 µM); MIC ([6]; read-out: MIC): 0.12 mg/L (≈ 0.137 µM); MIC ([7]; Streptococcus pyogenes, C203): 1 mg/L (≈ 1.14 µM); MIC ([8]; Streptococcus pneumoniae): 0.25 mg/L (≈ 0.285 µM) |
| CC(=O)O.CC(=O)O.CCC1OC(=O)CC(O)C(C)C(OC2OC(C)C(O)C(N(C)C)C2O)C(CCN)CC(C)C(=O)C=CC(C)=CC1COC1OC(C)C(O)C(OC)C1OC (stereo not drawn) [Compound 51b, 20-DH-DO-20-Aminodesmycosin diacetate] |  |  |  |  |  |  | 4 | 4 | 8 | 4 | 8 | 2 | 128 mg/L | 128 mg/L | 128 mg/L | -- (Not active at 128 mcg/ml, the highest level tested) |  | MIC ([8]; Streptococcus pneumoniae Park I, agar dilution): 16 mg/L |
| CCC1OC(=O)CC(O)C(C)C(OC2OC(C)C(O)C(N(C)C)C2O)C(CCOc2ccc(CO)cc2)CC(C)C(=O)C=CC(C)=CC1COC1OC(C)C(O)C(OC)C1OC (stereo not drawn) [Compound 51a] |  |  |  |  |  |  | 0.5 (≈ 0.568 µM) | 0.5 (≈ 0.568 µM) | 1 (≈ 1.14 µM) | 0.5 (≈ 0.568 µM) | 0.5 (≈ 0.568 µM) | 0.25 (≈ 0.284 µM) | 16 mg/L (≈ 18.2 µM) | 16 mg/L (≈ 18.2 µM) | 64 mg/L (≈ 72.7 µM) | 32 mg/L (≈ 36.4 µM) | 0.5 (≈ 0.568 µM) |  |
| CCC1OC(=O)CC(O)C(C)C(OC2OC(C)C(OC3CC(C)(O)C(O)C(C)O3)C(N(C)C)C2OC(C)=O)C(CCOc2ccccc2)CC(C)C(=O)C=CC(C)=CC1COC1OC(C)C(O)C(OC)C1OC (stereo not drawn) [Compound 64, 20-DH-20-O-Phenyl-2'-O-acetyltylosin] |  |  |  |  |  |  | 2 (≈ 1.93 µM) | 2 (≈ 1.93 µM) | 4 (≈ 3.86 µM) | 2 (≈ 1.93 µM) | 2 (≈ 1.93 µM) | 2 (≈ 1.93 µM) | -- (Not active at 128 mcg/ml, the highest level tested) | -- (Not active at 128 mcg/ml, the highest level tested) | -- (Not active at 128 mcg/ml, the highest level tested) | -- (Not active at 128 mcg/ml, the highest level tested) | 2 (≈ 1.93 µM) | MIC (Staphylococcus aureus): 3.12 mg/L (≈ 3.01 µM); MIC (Streptococcus bovis 80): 12.5 mg/L (≈ 12.1 µM); MIC [12]: -- (Not active at 50 mcg/ml, the highest level tested); MIC [13]: -- (Not active at 50 mcg/ml, the highest level tested); MIC [14]: -- (Not active at 50 mcg/ml, the highest level tested); MIC (Mycoplasma gallisepticum; Mycoplasma gallisepticum, broth-dilution microtiter): 1.56 mg/L (≈ 1.51 µM); MIC (Mycoplasma hyorhinis; Mycoplasma hyorhinis, broth-dilution microtiter): 50 mg/L (≈ 48.3 µM) |
| CCC1OC(=O)CC(O)C(C)C(OC2OC(C)C(OC3CC(C)(O)C(O)C(C)O3)C(N(C)C)C2O)C(CCOc2ccccc2)CC(C)C(=O)C=CC(C)=CC1COC1OC(C)C(O)C(OC)C1OC (stereo not drawn) [Compound 4, 20-DH-20-O-Phenyltylosin] | 1 (≈ 1.01 µM) | 1 (≈ 1.01 µM) | 1 (≈ 1.01 µM) | 1 (≈ 1.01 µM) | 128 (≈ 129 µM) | 128 (≈ 129 µM) |  |  |  |  |  |  |  |  |  |  |  | MIC ([3]; Staphylococcus aureus X400, methicillin-resistant strain, agar dilution, read-out: MIC): 2 mg/L (≈ 2.01 µM); MIC ([7]; Streptococcus pyogenes C203, agar dilution, read-out: MIC): 2 mg/L (≈ 2.01 µM); MIC ([10]; read-out: MIC): > 128 mg/L; MIC ([11]; read-out: MIC): > 128 mg/L; MIC (Staphylococcus aureus; read-out: MIC): 3.12 mg/L (≈ 3.14 µM); MIC (Streptococcus bovis 80; Streptococcus equinus, read-out: MIC): 12.5 mg/L (≈ 12.6 µM); MIC ([12]; read-out: MIC): > 50 mg/L; MIC ([13]; read-out: MIC): > 50 mg/L; MIC ([14]; read-out: MIC): > 50 mg/L; MIC (Mycoplasma gallisepticum; Mycoplasmoides gallisepticum): 1.56 mg/L (≈ 1.57 µM); MIC (Mycoplasma hyorhinis; Mycoplasma): 50 mg/L (≈ 50.3 µM); ED50 ([15]; C203, sc, subcutaneous, read-out: ED50, Subcutaneous): > 6.3 mg/kg; ED50 ([15]; C203, oral, read-out: ED50, Oral): 35 mg/kg |
